Experimental data: patent publication US9839642B2, “Beta-tetrazolyl-propionic acids as metallo-beta-lactamase inhibitors” (priority 2014, dated 2017)
pIC50: −log10 of the molar value. Like-named read-outs stand apart in the source and are kept apart here.

Assays:
IMP-1 = IMP-1 (Serratia marcescens, UniProt P52699); assay: Enzyme activity: determination of IC50, fluorescence assay with CCF2-FA substrate; assay type: biochemical; settings: CCF2-FA 1.25 μM, 2 hours at 25° C., read-out: IMP1 IC50
Method in brief: (§1)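 In pH 7 phosphate buffer (100 mM) with 10 μM ZnSO4 and 0.005% Tween-20, CCF2-FA substrate (1.25 μM final) was hydrolysed for 2 h at 25 °C by NDM-1, IMP-1 or VIM-1 at 1, 2 or 30 pM in the presence of inhibitor at 20–0.00063 μM. Emission 460 nm/excitation 405 nm; 4-parameter curve fit gave IC50.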

NDM-1 = NDM-1 (Klebsiella pneumoniae, UniProt C7C422); assay: as above; assay type: biochemical; settings: CCF2-FA 1.25 μM, 2 hours at 25° C., read-out: NDM1 IC50
Method in brief: as §1

VIM-1 = VIM-1 (Pseudomonas aeruginosa, UniProt A0A0F7KYQ8); assay: as above; assay type: biochemical; settings: CCF2-FA 1.25 μM, 2 hours at 25° C., read-out: VIM1 IC50
Method in brief: as §1

[1] = system: Escherichia coli expressing NDM-1 (CLB30016); assay: Antibiotic potentiation activity: synergistic concentration (MITC95) with imipenem, growth by OD600; assay type: cell-based
Method in brief: (§2)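 MITC95 = lowest inhibitor concentration giving 95% growth inhibition, read by absorbance after 22–24 h at 35° C. Compound range 200 μM to 0.195 μM, imipenem fixed at 1 or 4 μg/ml, bacteria in 1.1×CAMHB from saline suspension diluted 1:100.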

[2] = system: Klebsiella pneumoniae expressing VIM-1 (IHMA599644); assay: as above; assay type: cell-based
Method in brief: as §2

[3] = system: Serratia marcescens expressing IMP-1 (CL5741); assay: as above; assay type: cell-based
Method in brief: as §2

[4] = E. coli CLB30016 (NDM-1), 95% inhibition of growth
[5] = K. pneumoniae IHMA599644 (VIM-1), 95% inhibition of growth
[6] = S. marcescens CL5741 (IMP-1), 95% inhibition of growth
[7] = 95% inhibition of bacterial growth, strain CLB30016
[8] = 95% inhibition of bacterial growth, strain IHMA599644
[9] = 95% inhibition of bacterial growth, strain CL5741

Sequence of NDM-1 (C7C422 29-270, looked up, species assumed): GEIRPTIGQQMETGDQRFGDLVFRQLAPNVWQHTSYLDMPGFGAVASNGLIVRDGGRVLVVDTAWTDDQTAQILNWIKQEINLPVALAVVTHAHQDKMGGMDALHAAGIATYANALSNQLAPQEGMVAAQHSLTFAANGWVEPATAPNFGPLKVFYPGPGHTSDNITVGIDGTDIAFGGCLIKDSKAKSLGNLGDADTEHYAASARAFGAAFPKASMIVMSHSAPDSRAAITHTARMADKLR
Sequence of IMP-1 (P52699 19-246, looked up, species assumed): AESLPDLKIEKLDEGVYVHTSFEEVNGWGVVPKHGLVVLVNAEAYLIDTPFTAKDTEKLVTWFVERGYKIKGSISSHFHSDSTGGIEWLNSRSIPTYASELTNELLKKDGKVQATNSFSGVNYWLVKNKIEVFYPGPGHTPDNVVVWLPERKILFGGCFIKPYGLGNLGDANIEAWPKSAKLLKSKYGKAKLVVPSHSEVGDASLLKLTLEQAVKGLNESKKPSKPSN

Structure (SMILES): CCC[C@H](C(=O)O)[C@H](Cc1cccc(N2CCC[C@@H](N)C2)c1)c1nn[nH]n1 [Example 370, (2S)-2-[(1S)-2-{3-[(3R)-3-aminopiperidin-1-yl]phenyl}-1-(2H-tetrazol-5-yl)ethyl]pentanoic acid]
- pIC50 (IMP-1; IMP-1 enzyme 2 pM): 5.05
- pIC50 (NDM-1; NDM-1 enzyme 1 pM): 6.06
- pIC50 (VIM-1; VIM-1 enzyme 30 pM): 8.20
- NDM1 EC30016 MITC95 [1, 4]: 44 µM
- VIM1 KP599644 MITC95 [2, 5]: 41 µM
- IMP1 SM5741 MITC95 [3, 6]: 175 µM

Structure (SMILES): CC(C)C[C@H](C(=O)O)[C@H](Cc1ccc(Br)cc1)c1nnn[nH]1 [Example 25, (2S)-2-[(1S)-2-(4-bromophenyl)-1-(1H-tetrazol-5-yl)ethyl]-4-methylpentanoic acid]
- pIC50 (IMP-1; enzyme 2 pM): 7.06
- pIC50 (NDM-1; enzyme 1 pM): 7.49
- pIC50 (VIM-1; enzyme 30 pM): 8.59
- NDM1 EC30016 MITC95 [1, 7]: 4.7 µM
- VIM1 KP599644 MITC95 [2, 8]: 12.5 µM
- IMP1 SM5741 MITC95 [3, 9]: 3.1 µM

Structure (SMILES): CCC[C@H](C(=O)O)[C@H](Cc1ccc(C(=O)NCCN)cc1)c1nnn[nH]1 [Example 276, (2S)-2-[(1S)-2-{4-[(2-aminoethyl)carbamoyl]phenyl}-1-(1H-tetrazol-5-yl)ethyl]pentanoic acid]
- pIC50 (IMP-1; IMP-1 enzyme 2 pM): 5.27
- pIC50 (NDM-1; NDM-1 enzyme 1 pM): 5.96
- pIC50 (VIM-1; VIM-1 enzyme 30 pM): 8.08
- NDM1 EC30016 MITC95 [1, 4]: 12.5 µM
- VIM1 KP599644 MITC95 [2, 5]: 25 µM
- IMP1 SM5741 MITC95 [3, 6]: 100 µM

Structure (SMILES): CCC[C@H](C(=O)O)[C@H](Cc1ccc2ccc(N)nc2c1)c1nnn[nH]1 [Example 147, (S)-2-((S)-2-(2-aminoquinolin-7-yl)-1-(1H-tetrazol-5-yl)ethyl)pentanoic acid]
- pIC50 (IMP-1; enzyme 2 pM): 5.35
- pIC50 (NDM-1; enzyme 1 pM): 6.96
- pIC50 (VIM-1; enzyme 30 pM): 9.07
- NDM1 EC30016 MITC95 [1, 7]: 3.1 µM
- VIM1 KP599644 MITC95 [2, 8]: 6.2 µM
- IMP1 SM5741 MITC95 [3, 9]: 100 µM

Structure (SMILES): CC(C)[C@H](C(=O)O)[C@H](Cc1ccc(C2=CCNC2)cn1)c1nnn[nH]1 [Example 65, (2S,3S)-4-(5-(2,5-dihydro-1H-pyrrol-3-yl)pyridin-2-yl)-2-isopropyl-3-(1H-tetrazol-5-yl)butanoic acid]
- pIC50 (IMP-1; enzyme 2 pM): < 4.70
- pIC50 (NDM-1; enzyme 1 pM): 6.12
- pIC50 (VIM-1; enzyme 30 pM): 7.14
- NDM1 EC30016 MITC95 [1, 7]: 3.1 µM
- VIM1 KP599644 MITC95 [2, 8]: 12.5 µM
- IMP1 SM5741 MITC95 [3, 9]: 200 µM

Structure (SMILES): CC(C)C[C@H](C(=O)O)[C@H](Cc1ccc(-c2ccnc(N)c2)nc1)c1nn[nH]n1 [Example 178, (2S)-2-[(1S)-2-(2′-amino-2,4′-bipyridin-5-yl)-1-(2H-tetrazol-5-yl)ethyl]-4-methylpentanoic acid]
- pIC50 (IMP-1; enzyme 2 pM): 6.41
- pIC50 (NDM-1; enzyme 1 pM): 7.37
- pIC50 (VIM-1; enzyme 30 pM): 8.62
- NDM1 EC30016 MITC95 [1, 7]: 9.4 µM
- VIM1 KP599644 MITC95 [2, 8]: 25 µM
- IMP1 SM5741 MITC95 [3, 9]: 12.5 µM

Structure (SMILES): CCC[C@H](C(=O)O)[C@H](Cc1ccc(F)cc1F)c1nnn[nH]1 [Example 262, (2S)-2-[(1S)-2-(2,4-difluorophenyl)-1-(1H-tetrazol-5-yl)ethyl]pentanoic acid]
- pIC50 (IMP-1; IMP-1 enzyme 2 pM): 5.89
- pIC50 (NDM-1; NDM-1 enzyme 1 pM): 7.15
- pIC50 (VIM-1; VIM-1 enzyme 30 pM): 8.51
- NDM1 EC30016 MITC95 [1, 4]: 6.2 µM
- VIM1 KP599644 MITC95 [2, 5]: 12.5 µM
- IMP1 SM5741 MITC95 [3, 6]: 18.8 µM

Structure (SMILES): CC(C)C[C@H](C(=O)O)[C@H](Cc1ccc(N2CCCC(C(C)(C)N)C2)nc1)c1nnn[nH]1 (stereo partly drawn) [Example 322, (2S)-2-[(1S)-2-{6-[3-(1-amino-1-methylethyl)piperidin-1-yl]pyridin-3-yl}-1-(1H-tetrazol-5-yl)ethyl]-4-methylpentanoic acid]
- pIC50 (IMP-1; IMP-1 enzyme 2 pM): 6.26
- pIC50 (NDM-1; NDM-1 enzyme 1 pM): 6.47
- pIC50 (VIM-1; VIM-1 enzyme 30 pM): 7.96
- NDM1 EC30016 MITC95 [1, 4]: 18.8 µM
- VIM1 KP599644 MITC95 [2, 5]: 50 µM
- IMP1 SM5741 MITC95 [3, 6]: 25 µM

Structure (SMILES): CC(C)C[C@H](C(=O)O)[C@H](Cc1ccc(Oc2cccc(C3CCCNC3)c2)nc1)c1nn[nH]n1 (stereo partly drawn) [Example 382, (2S)-4-methyl-2-[(1S)-2-[6-(3-piperidin-3-ylphenoxy)pyridin-3-yl]-1-(2H-tetrazol-5-yl)ethyl]pentanoic acid]
- pIC50 (IMP-1; IMP-1 enzyme 2 pM): 6.77
- pIC50 (NDM-1; NDM-1 enzyme 1 pM): 6.85
- pIC50 (VIM-1; VIM-1 enzyme 30 pM): 7.47
- NDM1 EC30016 MITC95 [1, 4]: 12.5 µM
- VIM1 KP599644 MITC95 [2, 5]: 75 µM
- IMP1 SM5741 MITC95 [3, 6]: 12.5 µM
